Data published in patent publication US20210275657A1, “NEOANTIGENS AND USES THEREOF” (BioNTech US Inc., priority 2018, published 2021).
Where two headings read alike, the source gives them in different places. Where no end group is shown, it is not given here.

Key:
[1] = for solubility: without DMSO, after 6 hours; for solubility in 5 mM SS: 5 mM SS (higher SS concentration) in D5W; for Solubility in 0.5 mM SS in D5W w/ 4% DMSO: 0.5 mM sodium succinate in D5W; for Solubility in 0.5 mM SS in D5W w/ 4% DMSO / Solubility in […] SS in D5W w/o DMSO / Solubility in […] SS in D5W w/ 4% DMSO: no polyICLC; for Solubility in […] SS in D5W w/o DMSO / Solubility in Poly ICLC + […] SS in D5W w/o DMSO / Solubility in Poly ICLC + 5 mM SS in D5W w/o DMSO: no DMSO; for Solubility in […] SS in D5W w/ 4% DMSO: […] sodium succinate in D5W; for Solubility in Poly ICLC + […] SS in D5W w/o DMSO / Solubility in Poly ICLC + 5 mM SS in D5W w/ 4% DMSO / Solubility in Poly ICLC + 5 mM SS in D5W w/o DMSO / Solubility in Poly ICLC + […] SS in D5W w/ 4% DMSO: with polyICLC
indicated HLA alleles [2] = assay: Affinity of mutant EGFR neopeptides for indicated HLA alleles; type: binding, human
indicated HLA alleles [3] = assay: Stability of mutant EGFR neopeptides with the HLA alleles; type: binding, human
Protocol: (§1) Multiple peptides containing neoepitopes in the table below were either expressed or loaded onto antigen presenting cells. Mass spectrometry was then performed and the affinity of the neoepitopes for indicated HLA alleles were determined, and the stability of the neoepitopes with the HLA alleles were determined.

indicated HLA alleles [4] = assay: Stability of GATA3 neoORF neoepitopes with the HLA alleles (Example 9, Table 4); type: binding, human
Protocol: (§2) Multiple peptides containing the neoepitopes in Table 4 below were expressed or loaded onto antigen presenting cells (APCs). Mass spectrometry was then performed and the affinity of the neoepitopes for the indicated HLA alleles and stability of the neoepitopes with the HLA alleles was determined.

indicated HLA alleles [5] = assay: Affinity of GATA3 neoORF neoepitopes for the indicated HLA alleles (Example 9, Table 4); type: binding, human; conditions: Allele A24:02; read-out: Observed MHC affinity
Protocol: as §2

indicated HLA alleles [6] = target: indicated HLA alleles (Homo sapiens, UniProt P01889); assay: as above; type: binding
Protocol: as §2

indicated HLA alleles [7] = assay: Stability of mutant BTK neopeptides with the HLA alleles; type: binding, human; conditions: BTK_C481S; HLA A02.01
Protocol: as §1

indicated HLA alleles [8] = assay: Affinity of mutant BTK neopeptides for indicated HLA alleles; type: binding, human; conditions: BTK_C481S; HLA A02.01
Protocol: as §1

GPPARVPAVPFDLHFCRSSIMKPKRD [Peptide L8]
solubility ([1]; 0.4 mg/mL in […] SS): soluble
solubility in 5 mM SS [1]: soluble
solubility ([1]; 5 mM SS): soluble

IMQLMPFGC
Kd (indicated HLA alleles [2]; EGFR_T790M, HLA A02.01): 1210 nM
Stability (1/2 hr) (indicated HLA alleles [3]; EGFR_T790M, HLA A02.01): 0.3701 h

KAESKIMFATLQRSSLWCL [Peptide 11d]
Solubility in 0.5 mM SS in D5W w/ 4% DMSO [1]: Yes
Solubility in […] SS in D5W w/o DMSO [1]: Yes
Solubility in […] SS in D5W w/ 4% DMSO [1]: Yes
Solubility in Poly ICLC + […] SS in D5W w/o DMSO [1]: Yes

KAESKIMFATLQRSSLWCL [Peptide L11d]
solubility ([1]; 0.4 mg/mL in […] SS): soluble

KPKRDGYMFLKAESKI [Peptide L10c]
solubility ([1]; 0.4 mg/mL in […] SS): soluble
solubility in 5 mM SS [1]: soluble
solubility ([1]; 5 mM SS): soluble
Solubility in […] SS in D5W w/o DMSO [1]: Yes
Solubility in […] SS in D5W w/ 4% DMSO [1]: Yes
Solubility in Poly ICLC + 5 mM SS in D5W w/ 4% DMSO [1]: Yes
Solubility in Poly ICLC + 5 mM SS in D5W w/o DMSO [1]: Yes
Solubility in Poly ICLC + […] SS in D5W w/o DMSO [1]: Yes

KPKRDGYMFLKAESKIMFAT [Peptide 10b]
Solubility in 0.5 mM SS in D5W w/ 4% DMSO [1]: Yes
Solubility in […] SS in D5W w/ 4% DMSO [1]: Yes
Solubility in Poly ICLC + […] SS in D5W w/ 4% DMSO [1]: No

KPKRDGYMFLKAESKIMFATLQR [Peptide 10]
Solubility in […] SS in D5W w/ 4% DMSO [1]: Yes
Solubility in Poly ICLC + 5 mM SS in D5W w/ 4% DMSO [1]: No
Solubility in Poly ICLC + […] SS in D5W w/ 4% DMSO [1]: No

LHFCRSSIMKPKRDGYMFLKAESKI [Peptide 9]
Solubility in 0.5 mM SS in D5W w/ 4% DMSO [1]: Yes
Solubility in […] SS in D5W w/o DMSO [1]: Yes
Solubility in […] SS in D5W w/ 4% DMSO [1]: Yes
Solubility in Poly ICLC + 5 mM SS in D5W w/o DMSO [1]: Yes
Solubility in Poly ICLC + […] SS in D5W w/ 4% DMSO [1]: Yes

LHFCRSSIMKPKRDGYMFLKAESKI [Peptide L9]
solubility ([1]; 0.4 mg/mL in […] SS): soluble
solubility in 5 mM SS [1]: soluble
solubility ([1]; 5 mM SS): soluble

LIMQLMPFG
Kd (indicated HLA alleles [2]; EGFR_T790M, HLA A02.01): 3340 nM
Stability (1/2 hr) (indicated HLA alleles [3]; EGFR_T790M, HLA A02.01): 0 h

LTSTVQLIM
Kd (indicated HLA alleles [2]; EGFR T790M, HLA A01.01): 2890 nM
Stability (1/2 hr) (indicated HLA alleles [3]; EGFR T790M, HLA A01.01): 0.1037 h

MFLKAESKI
Observed MHC stability (indicated HLA alleles [4]; Allele A24:02): 0.2 h
Kd (indicated HLA alleles [5]): 332 nM

QPVLWTTPPL
Observed MHC stability (indicated HLA alleles [4]; Allele B07:02): 1.4 h
Kd (indicated HLA alleles [6]): 109 nM

STVQLIMQL
Kd (indicated HLA alleles [2]; EGFR_T790M, HLA A02.01): 7260 nM
Stability (1/2 hr) (indicated HLA alleles [3]; EGFR_T790M, HLA A02.01): 0 h

YMANGSLLN
Stability (1/2 hr) (indicated HLA alleles [7]): 0 h
Kd (indicated HLA alleles [8]): 4000 nM

YMFLKAESKIMFATLQRSS [Peptide 11c]
Solubility in 0.5 mM SS in D5W w/ 4% DMSO [1]: Yes
Solubility in […] SS in D5W w/ 4% DMSO [1]: Yes
Solubility in Poly ICLC + […] SS in D5W w/ 4% DMSO [1]: No
